Values belong to the compound of their own block, whether it stands above or below them.
Key:
Test in all cases: PNPG hydrolysis, absorbance at […] nm
Format in all cases: biochemical
α-glucosidase [1] = target: T1, α-glucosidase; settings: PNPG substrate, 0.2 U/mL enzyme, pH 6.8, 10 min
T1 construct: gene MAL12; pNPG assay at pH 6.8 as usual for the yeast enzyme

α-glucosidase [2] = test system: T1, α-glucosidase; settings: PNPG substrate, 0.2 U/mL enzyme, pH 6.8, 10 min; unreliable: text b23 swaps the parishin B and C values
α-glucosidase [3] = test system: T1, α-glucosidase; settings: PNPG substrate, 0.2 U/mL enzyme, pH 6.8, 10 min; unreliable: text b23 swaps the parishin B and C values; remark: listed apart in the source

SMILES: O=C(O)CC(O)(CC(=O)OCc1ccc(O[C@@H]2O[C@H](CO)[C@@H](O)[C@H](O)[C@H]2O)cc1)C(=O)OCc1ccc(O[C@@H]2O[C@H](CO)[C@@H](O)[C@H](O)[C@H]2O)cc1 (stereo partly drawn) [Parishin B]
Parishin B (α-glucosidase [2]): 0.13 ± 0.03 mg/mL

SMILES: OCc1ccc(O[C@@H]2O[C@H](CO)[C@@H](O)[C@H](O)[C@H]2O)cc1 [GAS]
GAS (α-glucosidase [1]): 1.23 ± 0.09 mg/mL

SMILES: O=C(CC(O)(CC(=O)OCc1ccc(O[C@@H]2O[C@H](CO)[C@@H](O)[C@H](O)[C@H]2O)cc1)C(=O)OCc1ccc(O[C@@H]2O[C@H](CO)[C@@H](O)[C@H](O)[C@H]2O)cc1)OCc1ccc(O[C@@H]2O[C@H](CO)[C@@H](O)[C@H](O)[C@H]2O)cc1 [Parishin A]
Parishin A (α-glucosidase [1]): 0.24 ± 0.05 mg/mL

Next, values leading:

HBA (α-glucosidase [1]): 0.16 ± 0.03 mg/mL
SMILES: OCc1ccc(O)cc1 [HBA]

Parishin E (α-glucosidase [1]): 0.54 ± 0.04 mg/mL
SMILES: O=C(O)CC(O)(CC(=O)OCc1ccc(O[C@@H]2O[C@H](CO)[C@@H](O)[C@H](O)[C@H]2O)cc1)C(=O)O (stereo partly drawn) [Parishin E]

Parishin C (α-glucosidase [3]): 0.19 ± 0.03 mg/mL
SMILES: O=C(CC(O)(CC(=O)OCc1ccc(O[C@@H]2O[C@H](CO)[C@@H](O)[C@H](O)[C@H]2O)cc1)C(=O)O)OCc1ccc(O[C@@H]2O[C@H](CO)[C@@H](O)[C@H](O)[C@H]2O)cc1 [Parishin C]

Reference: article PMC11476761, “Investigation of the Pharmacodynamic Components of Gastrodia elata Blume for Treatment of Type 2 Diabetes Mellitus through HPLC, Bioactivity, Network Pharmacology and Molecular Docking” (International Journal of Molecular Sciences, 2024)
